The test relates to MX-1 breast xenograft, intrarenal, nude mice, tumor weight. The experiment in a line: NCI In Vivo Anticancer Drug Screen. Data for tumor model Human Mammary Carcinoma MX-1 Xenograft (intrarenal inoculation) in NU/NU BALB/C (nude) mice. The conditions noted are these: endpoint: mean tumor weight change, higher = larger tumour. On the procedure:
The antitumor activity of compounds was measured in mice bearing transplantable tumors. Survival or tumor size were measured and the results are expressed as the measurement made in the treated group (T) divided by the measurement made in the vehicle treated control group (C). The tumor model used in this assay is Human Mammary Carcinoma MX-1 Xenograft (intrarenal inoculation) in NU/NU BALB/C (nude) mice
On the technique in general: Xenograft models place foreign cells or tissue in a host animal.

[1] abbreviates: dose: 150.0 mg/kg/injection, schedule: Q04DX003 (ip), vehicle: DMSO.
[2] abbreviates: dose: 300.0 mg/kg/injection, schedule: Q04DX003 (ip), vehicle: DMSO.
[3] abbreviates: dose: 600.0 mg/kg/injection, schedule: Q04DX003 (ip), vehicle: DMSO.

“And” between values parts separate entries of the source, which are not always exact repeats. Equal values may be shown once. Records with an inconclusive call do not appear.

Regarding `O=C1CC2(C(=O)N1CN1CCOCC1)c1ccccc1-c1ccccc12`, the T/C (dose: 300.0 mg/kg/injection, schedule: Q04DX003 (ip), vehicle: Klucel (hydroxypropylcellulose) (HPC)) was 97 % of control and the T/C (dose: 600.0 mg/kg/injection, schedule: Q04DX003 (ip), vehicle: Klucel (hydroxypropylcellulose) (HPC)) is 72 % of control.

For the compound `CNC(=O)OCc1nc(SC)n(C)c1COC(=O)NC`, the T/C is, setting by setting: (dose: 28.75 mg/kg/injection, schedule: Q04DX003 (ip), vehicle: saline) -91 % of control; (dose: 57.5 mg/kg/injection, schedule: Q04DX003 (ip), vehicle: saline) -85 % of control; (dose: 115.0 mg/kg/injection, schedule: Q04DX003 (ip), vehicle: saline) -63 % of control.

`O=c1c(O)c(O)c1=O.[NH2-].[NH2-].[NH2-].[NH2-].[NH2-].[Ru+5]`: the T/C runs as follows: (dose: 12.5 mg/kg/injection, schedule: Q04DX003 (ip), vehicle: suspension in saline) 98 % of control; (dose: 25.0 mg/kg/injection, schedule: Q04DX003 (ip), vehicle: suspension in saline) 74 % of control; (dose: 50.0 mg/kg/injection, schedule: Q04DX003 (ip), vehicle: suspension in saline) 60 % of control.

For the compound `c1ccc2[nH]c(CN(CCN(Cc3nc4ccccc4[nH]3)Cc3nc4ccccc4[nH]3)Cc3nc4ccccc4[nH]3)nc2c1`, the T/C is, setting by setting: (dose: 6.25 mg/kg/injection, schedule: Q04DX003 (ip), vehicle: DMSO) 59 % of control and 68 % of control; (dose: 50.0 mg/kg/injection, schedule: Q04DX003 (ip), vehicle: DMSO) 62 % of control.

Turning to `C=C(C)/C([O-])=N/[N+](C)(C)CC(O)CCCCCCCCCCCC` (stereo not drawn), the T/C runs as follows: (dose: 5.0 mg/kg/injection, schedule: Q04DX003 (ip), vehicle: Klucel (hydroxypropylcellulose) (HPC)) 76 % of control; (dose: 10.0 mg/kg/injection, schedule: Q04DX003 (ip), vehicle: Klucel (hydroxypropylcellulose) (HPC)) 111 % of control; (dose: 20.0 mg/kg/injection, schedule: Q04DX003 (ip), vehicle: Klucel (hydroxypropylcellulose) (HPC)) 90 % of control and 103 % of control; (dose: 40.0 mg/kg/injection, schedule: Q04DX003 (ip), vehicle: Klucel (hydroxypropylcellulose) (HPC)) 78 % of control; (dose: 80.0 mg/kg/injection, schedule: Q04DX003 (ip), vehicle: Klucel (hydroxypropylcellulose) (HPC)) 102 % of control and 118 % of control; (dose: 320.0 mg/kg/injection, schedule: Q04DX003 (ip), vehicle: Klucel (hydroxypropylcellulose) (HPC)) 85 % of control.

For the compound `O=NNc1ccccn1`, the T/C was 124 % of control (dose: 4.0 mg/kg/injection, schedule: Q01DX010 (sc), vehicle: saline); 80 % of control (dose: 16.0 mg/kg/injection, schedule: Q01DX010 (sc), vehicle: saline); 14 % of control (dose: 32.0 mg/kg/injection, schedule: Q01DX010 (sc), vehicle: saline).

As to `C[C@H]1C[C@@H]2[C@H]([C@@H](O)C[C@@]3(C)[C@H]2CC[C@]3(O)C(=O)CO)[C@@]2(C)C=CC(=O)C=C12`, the T/C (dose: 200.0 mg/kg/injection, schedule: Q04DX003 (sc), vehicle: Klucel (hydroxypropylcellulose) (HPC)) was 37 % of control; the T/C (dose: 400.0 mg/kg/injection, schedule: Q04DX003 (sc), vehicle: Klucel (hydroxypropylcellulose) (HPC)) was 47 % of control; the T/C (dose: 800.0 mg/kg/injection, schedule: Q04DX003 (sc), vehicle: Klucel (hydroxypropylcellulose) (HPC)) was 37 % of control; the T/C (dose: 1600.0 mg/kg/injection, schedule: Q04DX003 (sc), vehicle: Klucel (hydroxypropylcellulose) (HPC)) is 19 % of control.

Take `COc1ccc(-c2cc(C(=O)Nc3cc(C(F)(F)F)cc(C(F)(F)F)c3)c3ccccc3n2)cc1`: the T/C is, setting by setting: under setting [1], 103 % of control; under setting [2], 70 % of control; under setting [3], 78 % of control.

Regarding `Cc1ccc(C(=Nc2ccccc2)N=P(c2ccccc2)(c2ccccc2)c2ccccc2)cc1`, the T/C is, setting by setting: (dose: 50.0 mg/kg/injection, schedule: Q04DX003 (ip), vehicle: saline with Tween-80) 68 % of control; (dose: 100.0 mg/kg/injection, schedule: Q04DX003 (ip), vehicle: saline with Tween-80) 45 % of control.

Consider `O=CC(NC(=O)N(CCCl)N=O)C(O)C(O)C(O)CO` (stereo not drawn), for which the T/C is, setting by setting: (dose: 3.0 mg/kg/injection, schedule: Q01DX010 (sc), vehicle: Klucel (hydroxypropylcellulose) (HPC)) 59 % of control; (dose: 6.0 mg/kg/injection, schedule: Q01DX010 (sc), vehicle: Klucel (hydroxypropylcellulose) (HPC)) 51 % of control.

For `COc1ccc2[nH]c3ccc4cc[n+](CCN5CCC(C6CCN(CC[n+]7ccc8ccc9[nH]c%10ccc(OC)cc%10c9c8c7)CC6)CC5)cc4c3c2c1`, the T/C (dose: 4.0 mg/kg/injection, schedule: Q04DX003 (ip), vehicle: water) was 100 % of control; the T/C (dose: 8.0 mg/kg/injection, schedule: Q04DX003 (ip), vehicle: other) is 69 % of control; the T/C (dose: 8.0 mg/kg/injection, schedule: Q04DX003 (ip), vehicle: water) is 38 % of control; the T/C (dose: 16.0 mg/kg/injection, schedule: Q04DX003 (ip), vehicle: other) was 92 % of control; the T/C (dose: 16.0 mg/kg/injection, schedule: Q04DX003 (ip), vehicle: water) was 35 % of control; the T/C (dose: 23.04 mg/kg/injection, schedule: Q04DX003 (ip), vehicle: other) is 101 % of control. The T/C runs as follows: (dose: 32.0 mg/kg/injection, schedule: Q04DX003 (ip), vehicle: other) 86 % of control; (dose: 32.0 mg/kg/injection, schedule: Q04DX003 (ip), vehicle: water) 35 % of control; (dose: 38.4 mg/kg/injection, schedule: Q04DX003 (ip), vehicle: other) 53 % of control; (dose: 64.0 mg/kg/injection, schedule: Q04DX003 (ip), vehicle: other) 32 % of control and 42 % of control; (dose: 64.0 mg/kg/injection, schedule: Q04DX003 (ip), vehicle: water) 8 % of control.

As for `Nc1ccn([C@@H](C=O)C[C@@H](C=O)CO)c(=O)n1`, the T/C is 76 % of control (dose: 75.0 mg/kg/injection, schedule: Q04DX003 (ip), vehicle: saline) and 124 % of control (dose: 150.0 mg/kg/injection, schedule: Q04DX003 (ip), vehicle: saline).

On to `CC1(O)C=CC(=O)C=C1`, for which the T/C (dose: 25.0 mg/kg/injection, schedule: Q04DX003 (ip), vehicle: water) was 96 % of control and the T/C (dose: 50.0 mg/kg/injection, schedule: Q04DX003 (ip), vehicle: water) is 64 % of control.

As for `CC(C)NC(=O)N(CCCCBr)N=O`, the T/C (dose: 150.0 mg/kg/injection, schedule: Q04DX003 (sc), vehicle: Klucel (hydroxypropylcellulose) (HPC)) is -61 % of control and the T/C (dose: 300.0 mg/kg/injection, schedule: Q04DX003 (sc), vehicle: Klucel (hydroxypropylcellulose) (HPC)) is -100 % of control.

As to `COc1cc(C2c3cc4c(cc3[C@@H](OC3OC5CO[C@@H](C)OC5C(O)C3O)[C@H]3COC(=O)C23)OCO4)cc(OC)c1OC` (stereo partly drawn), the T/C is, setting by setting: (dose: 25.0 mg/kg/injection, schedule: Q04DX003 (ip), vehicle: saline) 88 % of control; (dose: 50.0 mg/kg/injection, schedule: Q04DX003 (ip), vehicle: saline) 84 % of control; (dose: 100.0 mg/kg/injection, schedule: Q04DX003 (ip), vehicle: saline) 55 % of control; (dose: 200.0 mg/kg/injection, schedule: Q04DX003 (ip), vehicle: saline) 61 % of control; (dose: 400.0 mg/kg/injection, schedule: Q04DX003 (ip), vehicle: saline) 32 % of control.

For `ClC1(Cl)Cc2ccccc21`, the T/C (dose: 150.0 mg/kg/injection, schedule: Q04DX003 (ip), vehicle: saline with Tween-80) is 109 % of control; the T/C (dose: 300.0 mg/kg/injection, schedule: Q04DX003 (ip), vehicle: saline with Tween-80) was 109 % of control; the T/C (dose: 600.0 mg/kg/injection, schedule: Q04DX003 (ip), vehicle: saline with Tween-80) is 45 % of control.

In the case of `O=C(O)[C@H](Cc1ccccc1)N1C(=O)c2ccccc2C1=O`, the T/C was 77 % of control under setting [1], 60 % of control under setting [2] and 33 % of control under setting [3].

The record behind these values is PubChem BioAssay AID298 (DTP/NCI, 2004).
